Key:
A549 [1] = assay: Cytotoxicity against human A549 cells after 24 hrs by MTT assay; format: functional, cell-based; conditions: A549, 24 h
A549 [2] = assay: Induction of apoptosis in human A549 cells assessed as increase in active caspase-3 level by immunoassay relative to control; format: functional
[3] = target: Receptor tyrosine-protein kinase erbB-2 (Homo sapiens, UniProt P04626); assay: Inhibition of recombinant human His-tagged HER2 cytoplasmic domain (676 to 1255 residues) expressed in baculovirus virus expression system after 1 hr by ELISA
[4] = target: Epidermal growth factor receptor (Homo sapiens, UniProt P00533); assay: Inhibition of recombinant human GST-tagged EGFR cytoplasmic domain (668 to 1210 residues) expressed in baculovirus virus expression system after 1 hr by ELISA
Chain of Epidermal growth factor receptor (P00533 whole entry, the tested form may be a part): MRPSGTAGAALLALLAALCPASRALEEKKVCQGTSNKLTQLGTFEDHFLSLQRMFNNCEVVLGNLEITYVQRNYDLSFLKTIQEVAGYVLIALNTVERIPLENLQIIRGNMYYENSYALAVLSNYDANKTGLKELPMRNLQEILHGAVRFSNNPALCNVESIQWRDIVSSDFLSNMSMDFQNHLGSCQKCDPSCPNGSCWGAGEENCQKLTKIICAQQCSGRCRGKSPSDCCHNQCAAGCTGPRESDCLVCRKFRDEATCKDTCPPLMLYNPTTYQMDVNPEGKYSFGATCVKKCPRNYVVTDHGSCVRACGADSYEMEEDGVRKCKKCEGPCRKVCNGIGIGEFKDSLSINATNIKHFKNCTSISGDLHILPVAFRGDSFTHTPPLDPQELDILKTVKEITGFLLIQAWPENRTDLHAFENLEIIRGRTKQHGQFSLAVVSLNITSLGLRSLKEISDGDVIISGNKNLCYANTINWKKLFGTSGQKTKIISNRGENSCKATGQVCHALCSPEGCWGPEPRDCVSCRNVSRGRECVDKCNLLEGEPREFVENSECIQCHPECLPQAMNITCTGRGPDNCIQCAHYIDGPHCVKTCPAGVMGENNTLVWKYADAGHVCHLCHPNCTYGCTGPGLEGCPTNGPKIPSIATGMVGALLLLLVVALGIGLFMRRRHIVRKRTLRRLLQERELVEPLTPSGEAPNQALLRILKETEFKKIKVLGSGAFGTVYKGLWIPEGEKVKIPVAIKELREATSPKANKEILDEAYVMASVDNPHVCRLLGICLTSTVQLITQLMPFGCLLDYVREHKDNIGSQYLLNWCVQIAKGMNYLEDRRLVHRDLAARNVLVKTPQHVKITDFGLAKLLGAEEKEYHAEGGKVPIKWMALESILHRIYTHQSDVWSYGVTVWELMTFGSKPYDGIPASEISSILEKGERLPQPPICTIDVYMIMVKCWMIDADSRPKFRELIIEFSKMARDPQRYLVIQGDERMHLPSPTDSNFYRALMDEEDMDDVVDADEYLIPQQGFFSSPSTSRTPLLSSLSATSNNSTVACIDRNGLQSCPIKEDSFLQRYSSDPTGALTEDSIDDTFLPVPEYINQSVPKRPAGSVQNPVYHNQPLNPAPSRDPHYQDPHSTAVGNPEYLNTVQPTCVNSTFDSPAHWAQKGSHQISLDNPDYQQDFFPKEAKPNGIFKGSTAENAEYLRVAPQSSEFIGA

Chain of Receptor tyrosine-protein kinase erbB-2 (P04626 whole entry, the tested form may be a part): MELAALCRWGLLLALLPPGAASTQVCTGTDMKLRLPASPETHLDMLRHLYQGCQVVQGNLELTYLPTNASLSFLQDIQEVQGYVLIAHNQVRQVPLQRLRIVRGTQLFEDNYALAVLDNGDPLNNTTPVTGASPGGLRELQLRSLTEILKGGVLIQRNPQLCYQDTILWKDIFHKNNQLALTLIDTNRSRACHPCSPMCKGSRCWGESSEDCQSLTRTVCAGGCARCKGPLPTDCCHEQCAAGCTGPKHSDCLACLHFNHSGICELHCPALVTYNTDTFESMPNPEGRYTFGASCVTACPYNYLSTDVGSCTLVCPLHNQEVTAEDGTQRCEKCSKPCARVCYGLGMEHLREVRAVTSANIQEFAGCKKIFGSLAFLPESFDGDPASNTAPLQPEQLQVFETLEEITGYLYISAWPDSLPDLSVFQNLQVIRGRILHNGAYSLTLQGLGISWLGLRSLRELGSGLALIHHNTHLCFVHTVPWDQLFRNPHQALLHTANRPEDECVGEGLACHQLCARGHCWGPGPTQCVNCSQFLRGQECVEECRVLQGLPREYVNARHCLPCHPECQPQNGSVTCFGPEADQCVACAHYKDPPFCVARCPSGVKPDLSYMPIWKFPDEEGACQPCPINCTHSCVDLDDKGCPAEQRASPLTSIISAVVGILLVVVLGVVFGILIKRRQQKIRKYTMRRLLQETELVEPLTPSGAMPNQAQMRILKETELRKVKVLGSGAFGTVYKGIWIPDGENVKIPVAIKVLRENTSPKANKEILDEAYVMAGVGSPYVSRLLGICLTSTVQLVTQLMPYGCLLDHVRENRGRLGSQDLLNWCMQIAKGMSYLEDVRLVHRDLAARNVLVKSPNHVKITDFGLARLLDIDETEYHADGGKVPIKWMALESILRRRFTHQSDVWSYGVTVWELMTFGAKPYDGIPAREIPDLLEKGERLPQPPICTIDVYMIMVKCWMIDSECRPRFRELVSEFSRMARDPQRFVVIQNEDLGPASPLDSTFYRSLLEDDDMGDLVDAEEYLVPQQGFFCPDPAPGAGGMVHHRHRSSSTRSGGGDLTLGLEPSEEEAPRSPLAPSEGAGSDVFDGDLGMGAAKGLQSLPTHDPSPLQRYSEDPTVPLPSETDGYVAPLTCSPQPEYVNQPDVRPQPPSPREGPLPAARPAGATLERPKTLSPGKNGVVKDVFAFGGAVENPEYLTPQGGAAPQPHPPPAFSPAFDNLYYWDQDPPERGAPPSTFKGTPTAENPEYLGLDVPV

NS(=O)(=O)c1ccc(-n2c(SCC(=O)Nc3ccncc3)nc3cc4ccccc4cc3c2=O)cc1
IC50 (A549 [1]): 500 nM

NS(=O)(=O)c1ccc(-n2c(SCC(=O)Nc3ccc(I)cc3)nc3cc4ccccc4cc3c2=O)cc1
IC50 (A549 [1]): 2530 nM

NS(=O)(=O)c1ccc(-n2c(SCC(=O)Nc3ccccn3)nc3cc4ccccc4cc3c2=O)cc1
IC50 (A549 [1]): 3520 nM

NS(=O)(=O)c1ccc(-n2c(SCC(=O)Nc3c(Cl)cc(Cl)cc3Cl)nc3cc4ccccc4cc3c2=O)cc1
IC50 (A549 [1]): 1070 nM

NS(=O)(=O)c1ccc(-n2c(SCC(=O)Nc3cc(Cl)c(Cl)cc3Cl)nc3cc4ccccc4cc3c2=O)cc1
fold change (FC) (A549 [2]): 6.28 | IC50 (A549 [1]): 290 nM | IC50 [3]: 760 nM

Cc1cccc([N+](=O)[O-])c1NC(=O)CSc1nc2cc3ccccc3cc2c(=O)n1-c1ccc(S(N)(=O)=O)cc1
IC50 (A549 [1]): 1480 nM

NS(=O)(=O)c1ccc(-n2c(SCC(=O)Nc3cnc4ccccc4c3)nc3cc4ccccc4cc3c2=O)cc1
IC50 [4]: 110 nM | fold change (FC) (A549 [2]): 8.49 | IC50 (A549 [1]): 120 nM | IC50 [3]: 390 nM

NS(=O)(=O)c1ccc(-n2c(SCC(=O)Nc3ccc(Br)cc3Br)nc3cc4ccccc4cc3c2=O)cc1
IC50 (A549 [1]): 1500 nM

NS(=O)(=O)c1ccc(-n2c(SCC(=O)Nc3ccc(Cl)cn3)nc3cc4ccccc4cc3c2=O)cc1
IC50 (A549 [1]): 1020 nM

NS(=O)(=O)c1ccc(-n2c(SCC(=O)Nc3ccc(Br)cc3)nc3cc4ccccc4cc3c2=O)cc1
IC50 (A549 [1]): 8700 nM

NS(=O)(=O)c1ccc(-n2c(SCC(=O)NCc3ccc4c(c3)OCO4)nc3cc4ccccc4cc3c2=O)cc1
IC50 (A549 [1]): 1360 nM

NS(=O)(=O)c1ccc(-n2c(SCC(=O)Nc3cccnc3)nc3cc4ccccc4cc3c2=O)cc1
IC50 (A549 [1]): 490 nM

NS(=O)(=O)c1ccc(-n2c(SCC(=O)Nc3cccnc3Cl)nc3cc4ccccc4cc3c2=O)cc1
IC50 (A549 [1]): 670 nM

NS(=O)(=O)c1ccc(-n2c(SCC(=O)Nc3ccccc3Cl)nc3cc4ccccc4cc3c2=O)cc1
IC50 (A549 [1]): 1160 nM

NS(=O)(=O)c1ccc(-n2c(SCC(=O)Nc3ccc([N+](=O)[O-])cc3[N+](=O)[O-])nc3cc4ccccc4cc3c2=O)cc1
IC50 [4]: 60 nM | fold change (FC) (A549 [2]): 9.35 | IC50 (A549 [1]): 280 nM | IC50 [3]: 300 nM

— ChEMBL document CHEMBL4130490, “Discovery of Benzo[g]quinazolin benzenesulfonamide derivatives as dual EGFR/HER2 inhibitors” (Eur J Med Chem, 2017)
